Data taken from patent US20130231305A1, “Method of Modulating Protein 14-3-3 Functionality By Facilitating or Inhibiting Phosphorylation” (Medvet Science Pty. Ltd., priority 2010, published 2013).
Positions count from the first letter of the chain named.

What was measured:
14-3-3ζ = target: T1, 14-3-3ζ (Homo sapiens, UniProt P63104); experiment: 14-3-3 phosphorylation by PKA catalytic subunit (autoradiography); format: biochemical; conditions: increasing concentrations of FTY720, FIG. 9C
T1 construct: made in house
T1 sequence (P63104 1-245): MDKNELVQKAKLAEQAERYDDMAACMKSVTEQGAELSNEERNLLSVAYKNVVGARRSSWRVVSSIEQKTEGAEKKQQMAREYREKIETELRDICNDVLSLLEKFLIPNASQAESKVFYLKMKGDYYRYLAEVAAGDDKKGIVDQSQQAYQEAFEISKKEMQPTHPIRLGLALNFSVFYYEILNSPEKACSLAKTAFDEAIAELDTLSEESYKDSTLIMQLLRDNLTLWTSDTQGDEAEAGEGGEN

14-3-3 isoforms = experiment: Phosphorylation of recombinant 14-3-3 isoforms by PKA catalytic subunit; format: biochemical; conditions: 50 μM in 0.1% ethanol
Protocol: FIG. 3 is an image depicting that sphingosine is required for the phosphorylation of multiple 14-3-3 isoforms in the third helix. (A) Primary sequence alignment of 14-3-3 isoforms in the third helix showing conservation of a Ser phosphorylation site (shown in bold). Asterisks indicate identical amino acids. (B) Recombinant 14-3-3 isoforms were incubated with PKA catalytic subunit in the presence of 50 μM sphingosine, dimethyl-sphingosine (DMS) or FTY 720 (FTY) delivered in 0.1% ethanol (EtOH). Phosphorylated 14-3-3s were detected by autoradiography. Gels were coomassie stained to show equal loading of 14-3-3 substrate.
Substrate 14-3-3 (either 0.5 μg of purified recombinant 14-3-3, a […] of fractions from gel filtration or immunoprecipitates from 14-3-3ζ-Myc transfected COS cells) were added to reaction mixture comprising 0.2 Units of the PKA catalytic subunit, in the presences or absence of sphingolipid (delivered in 0.1% v/v ethanol) in PICA reaction buffer (20 mM MOPS, pH 7.4, 20 mM β-glycerol phosphate, 4 mM EGTA, 1 mM Na3VO4, 60 mM MgCl2, 1 mM DTT, 500 μM ATP, 2.4 μCi [^32P]γ-ATP). Reactions were incubated at 37° C. for 15 minutes. After incubation, reactions were separated on 12.5% SDS-PAGE, coomassie stained and 14-3-3 phosphorylation analysed by autoradiography.

14-3-3ζ D20N mutant = target: T2, 14-3-3ζ D20N mutant (Homo sapiens, UniProt P63104, D20N); experiment: Phosphorylation of D20N mutant 14-3-3ζ by PKA catalytic subunit with FTY720; format: biochemical; conditions: increasing concentrations of FTY720, FIG. 9C
T2 construct: made in house
T2 sequence (P63104 1-245 D20N): T1 sequence (P63104 1-245) with D20N
Excerpt: FIG. 9 A depicts a side view of 14-3-3ζ in space filling representation indicating the orientation of view B. The monomer units (in green and orange) and interacting phospho-peptides, (in cyan) bound in the dual amphipathic grooves are shown. B. Bottom-up view of 14-3-3ζ with the location of S58 phosphorylation site (indicated by arrows and asterisk) and key surface acidic (in yellow) and basic (in blue) residues shown. C. In vitro phosphorylation of 14-3-3ζ wild type and mutants as indicated by catalytic PKA subunit in the presence of increasing concentrations of FTY720. […] D. Mutant 14-3-3 (as indicated) was analysed by native-PAGE and Coomassie staining. The arrow indicates the migration of dimeric 14-3-3 protein. E. A schematic representation of a 14-3-3 dimer showing the buried S58 phosphorylation site in pink, D20, the residue proposed to interact with sphingolipid in yellow and the predicted salt bridge interactions involved in dimerisation. F. & G. In silico docking of FTY720 (shown in cyan in F.) and sphingosine (in pink in G.) in 14-3-3ζ dimer interface.
The dimer interface of 14-3-3 proteins lies at the bottom of the phospho-serine binding groove and comprises a central hole of around 10 Å in diameter in which the Ser58 phosphorylation site is positioned (FIG. 9B, indicated by *). […]

Jurkat cells = experiment: Jurkat cell apoptosis (TMRE staining, NucView caspase activity); format: cell-based; conditions: 2 μM
Excerpt: (A) Immunoblotting of lysates from either parental Jurkat cells (Jurkat) or cells transduced with lentivirus encoding either wild type (Wt) or S58A 14-3-3ζ-Myc with either an anti-14-3-3ζ specific antibody (upper panel) or an anti-pan 14-3-3 antibody (middle panel) to compare the expression level of transduced protein. Myc immunoprecipitates were also immunoblotted with an anti-phospho 14-3-3 binding site antibody (lower panel) to detect proteins associated with 14-3-3ζ-Myc. Endogenous 14-3-3 is indicated by an open arrow and exogenous 14-3-3ζ-Myc with a closed arrow. (B) Lysates from either wild type (Wt) or S58A 14-3-3ζ-Myc expressing Jutkat cells were subjected to in vitro PKA phosphorylation in the presence (+) or absence (−) of […] and the samples immunoblotted after SDS-PAGE separation With either anti-Myc antibody (upper panel), anti-14-3-3ζ antibody (middle panel) or anti-phospho Ser58 14-3-3ζ antibody (lower panel). (C) Serum-starved Jurkat cells were treated with 2 μM FTY720 for 4 h prior to staining with TMRE and NucView™. Forward- versus side-scatter plots (FS versus SS) show the viable cell populations for FTY720 and EtOH (vehicle) treated cells which are analysed in the lower histograms for caspase activity (NucView™) versus ΔΨM (TMRE). (D and E) Jurkat cell lines expressing either wild type or S58A 14-3-3ζ-Myc by lentiviral transduction were serum-starved for 2 h and treated with either 0.1% ethanol vehicle alone (EtOH), 2 μM dimethyl-sphingosine (DMS), or 2 μM FTY720. Cells were analysed by TMRE staining at 4 h (D) or at the time points indicated (E). (D) Representative analyses of TMRE staining with forward- versus side-scatter plots inset to show the similarity in cell populations. (E) Graphical representation of TMRE analysis over time with open symbols representing vehicle (0.1% EtOH) treated cells and closed symbols representing FTY720 treated cells. […]
FIG. 11. […] Effect of TMAs on Jurkat cells after 16 hours incubation assessed by ΔΨM (TMRE) and caspase 3 activity (NucView™) analysis. […] Forward-side-scatter histograms showing cell viability are inset and caspase 3 activity as assessed by NucView™ analysis of viable cells shown. E. Examples of TMA-derivatives of FTY720 that will be analysed for effects on 14-3-3 dimer stability and apoptosis.
Having confirmed appropriate expression and behaviour of Myc-tagged wild type and S58A 14-3-3ζ in the Jurkat lines, these cells were utilised in functional studies to determine the effect of S58A 14-3-3ζ expression on cell survival in response to sphingosine analogues. […] Intriguingly, Jurkat cells expressing S58A 14-3-3ζ-Myc consistently underwent commitment to apoptosis (as detected by the loss of TMRE staining) more slowly than those expressing wild type 14-3-3ζ-Myc (FIG. 8D).

[1] = 4 h, serum-starved Jurkat cells

phosphorylatability of wild-type 14-3-3ζ by PKA catalytic subunit (14-3-3ζ): increasing phosphorylatability
phosphorylatability of D20N 14-3-3ζ by PKA catalytic subunit (14-3-3ζ D20N mutant): only weakly phosphorylatable
Compound: CCCCCCCCc1ccc(CCC(N)(CO)CO)cc1 [FTY720]
phosphorylation of 14-3-3 isoforms by PKA catalytic subunit (14-3-3 isoforms): behaved similarly to sphingosine and DMS in modulating 14-3-3 for phosphorylation
caspase-3 activity (NucView) (Jurkat cells; [1]): activation of caspase-3
commitment to apoptosis (loss in TMRE staining) (Jurkat cells; [1]): rapid commitment to apoptosis
commitment to apoptosis in S58A versus wild type 14-3-3ζ-Myc expressing cells (TMRE) (Jurkat cells; Jurkat cells expressing S58A 14-3-3ζ-Myc): delayed mitochondrial permeability transition
